# Results taken from patent US10130601B2, “Use of a composition comprising fish oil and juice for the treatment of inflammation” (Smartfish AS, priority 2013, dated 2018).
# How the values were obtained:
# [1] = ALSFRS-R score (self-reported) in ALS patients; type: in vivo, human
# From the text: Patients in the study self-reported the ALSFRS-R score. The Amyotrophic Lateral Sclerosis Functional Rating Scale (ALSFRS-R) is a score from 0-48 which assesses disability in patients with MND. It was developed by Cedarbaum and colleagues (Cedarbaum J M. The ALSFRS-R: a revised ALS functional rating scale that incorporates assessments of respiratory function. BDNF ALS Study Group (Phase III). J Neurol Sci 1999; 169: 13-21). There are twelve questions, some asking about daily activities and how much help a patient needs with them, and some about specific symptoms.
# 1 for 8 months, no. 2 for 2 months, no. 6 for 4 months, no 7 for 5 months, and no. 11 for 4 months (Table 1). […] 1: 2.6 loss to 0.4 loss, no. 6: from 0.7 loss to 1 point gain, no. 11: from 3.5 loss to 0.5 loss. Said three patients were the patients receiving the composition of the present invention.
# [2] = test system: inflammatory genes in peripheral blood mononuclear cells; test: Inflammatory gene transcription in peripheral blood mononuclear cells of ALS patients; type: in vivo, human; details: PBMCs
# From the text: The aim of this study was to investigate in vivo baseline inflammatory gene transcription in peripheral blood mononuclear cells and the effects of tozilizumab (Actemra®) in 11 ALS patients and also measure the disability before and after the therapy comparing the FRS-R score (Functional Rating Scale). Fiala et al., (to be published). The patients were free to take nutritional supplements. Three patients were taking the composition used in the present invention, transcription results are presented in Example 1 together with the results from the ALSFRS-R score (The Amyotrophic Lateral Sclerosis Functional Rating Scale).
# In vivo baseline inflammatory gene transcription in peripheral blood mononuclear cells of 11 ALS patients and the effects of tocilizumab (Actemra®) (cytokine antagonist) infusions were studied tocilizumab inhibits global interleukin-6 (IL6) signaling, a key mechanism in chronic rheumatoid disorder.
# At base line one half of the ALS subjects had strong inflammatory activation (Group 1) (8 genes up regulated >4-fold, P<0.05 vs. controls) and the other half (Group 2) had weak activation (Group 2).
substance,measurement,setting,value
tocilizumab [Actemra],FRS-R change After Actemra,"[1]; patient #1, spinal ALS, Group 1, before −2.6, treated 8 months, also took the composition",−0.4 points/mo
same,FRS-R change After Actemra,"[1]; patient #2, spinal ALS, Group 1, before −1.3, treated 2 months",−0.75 points/mo
same,FRS-R change After Actemra,"[1]; patient #6, spinal ALS, Group 2, before −0.7, treated 4 months, also took the composition",+1.0 points/mo
same,FRS-R change After Actemra,"[1]; patient #7, spinal ALS, Group 2, before −0.37, treated 5 months",−2.0 points/mo
same,FRS-R change After Actemra,"[1]; patient #11, spinal ALS, Group unknown, before −3.5, treated 4 months, also took the composition",−0.5 points/mo
same,regulation of inflammatory genes after infusions,[2]; ALS patients of Group 1 (strong inflammation),down regulation
same,regulation of inflammatory genes after infusions,[2]; ALS patients of Group 2 (weak inflammation),up regulation
